In one assay the target is cloned rat KOR (Rattus norvegicus, UniProt P34975). The assay can be described thus: Radioligand binding assay, KOR. The following applies: SEM.
For a further assay, the target named is cloned rat MOR (Rattus norvegicus, UniProt P33535). The assay can be described thus: Radioligand binding assay, MOR. The following applies: SEM.
Another assay has as its target mouse DOR (Mus musculus, UniProt P32300). The assay can be described thus: Radioligand binding assay, DOR.
For another assay, the target named is cloned KOR (Rattus norvegicus, UniProt P34975). Kind of assay: [35S]GTPγS assay at KOR. The format is biochemical. The following applies: SEM.

Each structure is given as a SMILES string. Where two headings read alike, the source gives them in different places. Where a SMILES comes first, the peptide text is derived from it.

cloned rat KOR, sequence (P34975 whole entry): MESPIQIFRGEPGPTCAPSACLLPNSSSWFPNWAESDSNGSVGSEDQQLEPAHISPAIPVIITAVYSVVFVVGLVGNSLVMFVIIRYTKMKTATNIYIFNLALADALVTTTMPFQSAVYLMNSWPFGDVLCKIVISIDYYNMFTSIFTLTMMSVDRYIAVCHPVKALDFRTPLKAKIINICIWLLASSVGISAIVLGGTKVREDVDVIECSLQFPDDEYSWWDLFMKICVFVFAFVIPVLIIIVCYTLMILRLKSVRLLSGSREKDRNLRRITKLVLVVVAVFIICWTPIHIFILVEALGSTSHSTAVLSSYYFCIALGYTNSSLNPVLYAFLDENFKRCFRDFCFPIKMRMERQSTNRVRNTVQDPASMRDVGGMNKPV
cloned KOR, sequence (P34975 whole entry): as above
mouse DOR, sequence (P32300 whole entry): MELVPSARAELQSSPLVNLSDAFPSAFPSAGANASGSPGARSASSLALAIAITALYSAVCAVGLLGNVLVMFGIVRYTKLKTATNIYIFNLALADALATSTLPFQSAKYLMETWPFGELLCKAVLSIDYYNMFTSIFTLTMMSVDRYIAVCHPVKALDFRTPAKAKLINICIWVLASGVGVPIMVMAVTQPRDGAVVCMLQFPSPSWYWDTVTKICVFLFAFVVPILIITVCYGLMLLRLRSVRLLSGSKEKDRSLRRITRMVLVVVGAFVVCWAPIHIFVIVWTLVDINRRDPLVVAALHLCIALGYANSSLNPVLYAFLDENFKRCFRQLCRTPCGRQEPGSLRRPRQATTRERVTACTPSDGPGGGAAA
cloned rat MOR, sequence (P33535 whole entry): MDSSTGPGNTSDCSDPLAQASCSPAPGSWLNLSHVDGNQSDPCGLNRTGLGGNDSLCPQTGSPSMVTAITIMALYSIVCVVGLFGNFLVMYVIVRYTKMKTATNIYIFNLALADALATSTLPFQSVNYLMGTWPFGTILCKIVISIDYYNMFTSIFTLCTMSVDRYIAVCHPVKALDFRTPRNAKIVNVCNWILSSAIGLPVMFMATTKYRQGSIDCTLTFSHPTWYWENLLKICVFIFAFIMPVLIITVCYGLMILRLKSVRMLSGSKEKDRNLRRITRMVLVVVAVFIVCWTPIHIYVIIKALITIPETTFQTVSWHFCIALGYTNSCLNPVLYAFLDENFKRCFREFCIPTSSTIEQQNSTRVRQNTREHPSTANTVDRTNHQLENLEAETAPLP

What is called Ki is the dissociation constant of the complex between target and ligand, obtained from inhibition or displacement. High values mean lower affinity, low ones higher affinity. What is called EC50 is the concentration giving half of the maximal effect. High values mean lower potency in that assay, low ones higher potency in that assay. `CC(C)C[C@H](NC(=O)[C@H](Cc1ccccc1)NC(=O)CNC(=O)CNC(=O)[C@H](C)N)C(=O)N[C@@H](CCCNC(=N)N)C(=O)N[C@@H](CCCNC(=N)N)C(=O)N[C@@H](CCC(N)=O)C(=O)N[C@@H](Cc1ccccc1)C(=O)N[C@@H](CCCCN)C(=O)N[C@H](C(=O)N[C@H](C(=O)N[C@H](C(N)=O)[C@@H](C)O)C(C)C)C(C)C` [Compound 1] (H-AGGFLRRQFKVVT-NH2): the Ki on cloned rat KOR was 886 ± 123 nM; at cloned rat MOR, 651 ± 70 nM; at mouse DOR, > 10000 nM. Further, the EC50 at cloned KOR was determined as 2650 ± 890 nM.

Turning to `CC(C)C[C@H](NC(=O)[C@H](C)NC(=O)CNC(=O)CNC(=O)[C@@H](N)Cc1ccc(O)cc1)C(=O)N[C@@H](CCCNC(=N)N)C(=O)N[C@@H](CCCNC(=N)N)C(=O)N[C@@H](CCC(N)=O)C(=O)N[C@@H](Cc1ccccc1)C(=O)N[C@@H](CCCCN)C(=O)N[C@H](C(=O)N[C@H](C(=O)N[C@H](C(N)=O)[C@@H](C)O)C(C)C)C(C)C` [Compound 2] (H-YGGALRRQFKVVT-NH2), the Ki was 1510 ± 221 nM on cloned rat KOR, 1040 ± 100 nM at cloned rat MOR and > 10000 nM at mouse DOR. At cloned KOR, this molecule gave an EC50 of 1180 ± 330 nM.

For the molecule `CC(C)[C@H](NC(=O)[C@H](CCCCN)NC(=O)[C@H](Cc1ccccc1)NC(=O)[C@H](CCC(N)=O)NC(=O)[C@H](CCCNC(=N)N)NC(=O)[C@H](CCCNC(=N)N)NC(=O)[C@H](C)NC(=O)[C@H](Cc1ccccc1)NC(=O)CNC(=O)CNC(=O)[C@@H](N)Cc1ccc(O)cc1)C(=O)N[C@H](C(=O)N[C@H](C(N)=O)[C@@H](C)O)C(C)C` [Compound 3] (H-YGGFARRQFKVVT-NH2), the Ki at cloned rat KOR worked out at 12.1 ± 5.2 nM; on cloned rat MOR, 20.3 ± 3.1 nM; at mouse DOR (SEM), 265 ± 43 nM. In addition, at cloned KOR, a half-maximal effect (EC50) was put at 109 ± 34 nM.

For the molecule `CC(C)C[C@H](NC(=O)[C@H](Cc1ccccc1)NC(=O)CNC(=O)CNC(=O)[C@@H](N)Cc1ccc(O)cc1)C(=O)N[C@@H](C)C(=O)N[C@@H](CCCNC(=N)N)C(=O)N[C@@H](CCC(N)=O)C(=O)N[C@@H](Cc1ccccc1)C(=O)N[C@@H](CCCCN)C(=O)N[C@H](C(=O)N[C@H](C(=O)N[C@H](C(N)=O)[C@@H](C)O)C(C)C)C(C)C` [Compound 4] (H-YGGFLARQFKVVT-NH2), the Ki stood at 43.1 ± 2.8 nM at cloned rat KOR, 14.1 ± 3 nM on cloned rat MOR and 25.7 ± 1.6 nM at mouse DOR (SEM). On cloned KOR, this molecule registered an EC50 of 116 ± 21 nM.

Consider `CC(C)C[C@H](NC(=O)[C@H](Cc1ccccc1)NC(=O)CNC(=O)CNC(=O)[C@@H](N)Cc1ccc(O)cc1)C(=O)N[C@@H](CCCNC(=N)N)C(=O)N[C@@H](C)C(=O)N[C@@H](CCC(N)=O)C(=O)N[C@@H](Cc1ccccc1)C(=O)N[C@@H](CCCCN)C(=O)N[C@H](C(=O)N[C@H](C(=O)N[C@H](C(N)=O)[C@@H](C)O)C(C)C)C(C)C` [Compound 5] (H-YGGFLRAQFKVVT-NH2), for which the Ki at cloned rat KOR turned out to be 82.4 ± 9.3 nM; on cloned rat MOR, 16.7 ± 5.1 nM; on mouse DOR (SEM), 67.5 ± 8.3 nM. For the same molecule, the response at cloned KOR was half-maximal at 802 ± 290 nM (EC50).

`CC(C)C[C@H](NC(=O)[C@H](Cc1ccccc1)NC(=O)CNC(=O)CNC(=O)[C@@H](N)Cc1ccc(O)cc1)C(=O)N[C@@H](CCCNC(=N)N)C(=O)N[C@@H](CCCNC(=N)N)C(=O)N[C@@H](C)C(=O)N[C@@H](Cc1ccccc1)C(=O)N[C@@H](CCCCN)C(=O)N[C@H](C(=O)N[C@H](C(=O)N[C@H](C(N)=O)[C@@H](C)O)C(C)C)C(C)C` [Compound 6] (H-YGGFLRRAFKVVT-NH2): the results for the Ki at cloned rat KOR, on cloned rat MOR and at mouse DOR (SEM) were 13 ± 0.96 nM, 4.32 ± 0.1 nM and 54 ± 6.9 nM, respectively. On cloned KOR, this molecule registered an EC50 of 20.2 ± 10.8 nM.

For `CC(C)C[C@H](NC(=O)[C@H](Cc1ccccc1)NC(=O)CNC(=O)CNC(=O)[C@@H](N)Cc1ccc(O)cc1)C(=O)N[C@@H](CCCNC(=N)N)C(=O)N[C@@H](CCCNC(=N)N)C(=O)N[C@@H](CCC(N)=O)C(=O)N[C@@H](C)C(=O)N[C@@H](CCCCN)C(=O)N[C@H](C(=O)N[C@H](C(=O)N[C@H](C(N)=O)[C@@H](C)O)C(C)C)C(C)C` [Compound 7] (H-YGGFLRRQAKVVT-NH2), the Ki on cloned rat KOR stood at 11.3 ± 1.7 nM; at cloned rat MOR, 3.76 ± 0.22 nM; at mouse DOR (SEM), 42.1 ± 2.5 nM. The same molecule returned an EC50 at cloned KOR of 14.8 ± 2.6 nM.

Regarding `CC(C)C[C@H](NC(=O)[C@H](Cc1ccccc1)NC(=O)CNC(=O)CNC(=O)[C@@H](N)Cc1ccc(O)cc1)C(=O)N[C@@H](CCCNC(=N)N)C(=O)N[C@@H](CCCNC(=N)N)C(=O)N[C@@H](CCC(N)=O)C(=O)N[C@@H](Cc1ccccc1)C(=O)N[C@@H](C)C(=O)N[C@H](C(=O)N[C@H](C(=O)N[C@H](C(N)=O)[C@@H](C)O)C(C)C)C(C)C` [Compound 8] (H-YGGFLRRQFAVVT-NH2), the values for the Ki on cloned rat KOR, at cloned rat MOR and on mouse DOR (SEM) were 31.6 ± 6 nM, 40.5 ± 3.9 nM and 119 ± 16 nM, respectively. The midpoint of the response at cloned KOR, the EC50, lay at 6.36 ± 1.7 nM.

Take `CC(C)C[C@H](NC(=O)[C@H](Cc1ccccc1)NC(=O)CNC(=O)CNC(=O)[C@@H](N)Cc1ccc(O)cc1)C(=O)N[C@@H](CCCNC(=N)N)C(=O)N[C@@H](CCCNC(=N)N)C(=O)N[C@@H](CCC(N)=O)C(=O)N[C@@H](Cc1ccccc1)C(=O)N[C@@H](CCCCN)C(=O)N[C@@H](C)C(=O)N[C@H](C(=O)N[C@H](C(N)=O)[C@@H](C)O)C(C)C` [Compound 9] (H-YGGFLRRQFKAVT-NH2): the Ki on cloned rat KOR is 12.4 ± 1.6 nM; at cloned rat MOR, 7.45 ± 2.69 nM; on mouse DOR (SEM), 58.8 ± 3.4 nM. The molecule also showed an EC50 at cloned KOR of 8.79 ± 2.2 nM.

In the case of `CC(C)C[C@H](NC(=O)[C@H](Cc1ccccc1)NC(=O)CNC(=O)CNC(=O)[C@@H](N)Cc1ccc(O)cc1)C(=O)N[C@@H](CCCNC(=N)N)C(=O)N[C@@H](CCCNC(=N)N)C(=O)N[C@@H](CCC(N)=O)C(=O)N[C@@H](Cc1ccccc1)C(=O)N[C@@H](CCCCN)C(=O)N[C@H](C(=O)N[C@H](C(=O)N[C@H](C(N)=O)[C@@H](C)O)C(C)C)C(C)C` [Dyn B amide, reference compound], the Ki at cloned rat KOR was found to be 6.3 ± 1.68 nM; on cloned rat MOR, 8.05 ± 2.87 nM; at mouse DOR (SEM) it was 43.2 ± 1.6 nM. For the same molecule, at cloned KOR, the EC50 was 9.14 ± 1.96 nM.

These data come from PMC6003702 (Biopolymers, 2017).
